“And” between values parts separate entries of the source, which are not always exact repeats. Identical values can stand only once.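 A five-concentration, 48-hour dose response in 96-well plates underlies each endpoint, interpolated linearly between surrounding concentrations. Abbreviation: GI50, concentration required for 50% inhibition of growth. The concentration for full growth arrest is given as TGI.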
Tests used:
Experiment in all cases: NCI tumour cell line growth inhibition, 48 h
OVCAR-4 ovarian = system: OVCAR-4 ovarian
KM12 colon = system: KM12 colon
SK-OV-3 ovarian = system: SK-OV-3 ovarian
RXF 393 renal = system: RXF 393 renal
MCF7 breast = system: MCF7 breast
CCRF-CEM leukemia = system: CCRF-CEM leukemia
IGROV1 ovarian = system: IGROV1 ovarian
U251 CNS = system: U251 CNS
RPMI-8226 leukemia = system: RPMI-8226 leukemia
UO-31 renal = system: UO-31 renal
UACC-62 melanoma = system: UACC-62 melanoma
PC-3 prostate = system: PC-3 prostate
BT-549 breast = system: BT-549 breast

| Compound | TGI (OVCAR-4 ovarian) | TGI (KM12 colon) | TGI (SK-OV-3 ovarian) | TGI (RXF 393 renal) | TGI (MCF7 breast) | TGI (CCRF-CEM leukemia) | TGI (IGROV1 ovarian) | TGI (U251 CNS) | TGI (RPMI-8226 leukemia) | TGI (UO-31 renal) | TGI (UACC-62 melanoma) | TGI (PC-3 prostate) [µM] | TGI (BT-549 breast) [µM] | GI50 (MCF7 breast) [nM] | GI50 (PC-3 prostate) [µM] | GI50 (BT-549 breast) [µM] | GI50 (CCRF-CEM leukemia) | GI50 (UO-31 renal) [nM] |
| --- | --- | --- | --- | --- | --- | --- | --- | --- | --- | --- | --- | --- | --- | --- | --- | --- | --- | --- |
| CC(=O)NC(CCC(=O)C=[N+]=N)C(=O)O (centres undefined) | > 100 µM | > 100 µM | > 100 µM | > 100 µM | > 100 µM | > 100 µM | > 100 µM | > 100 µM | > 100 µM | > 100 µM | > 100 µM | > 100 | > 100 | – | – | – | – | – |
| Cc1oc2c(Cl)cc(O)c(Cl)c2c2cccc1-2 | 36.9 µM | 47.4 µM | > 100 µM | – | > 100 µM | 95.3 µM | 75.4 µM | 64.9 µM | 36.6 µM | > 100 µM | > 100 µM | > 100 | 74.2 | – | – | – | – | – |
| [O-][n+]1ccccc1S | 4.4 µM | 20.3 µM | > 100 µM | 8.33 µM | > 100 µM | – | 4.09 µM | > 100 µM | 6.47 µM | > 100 µM | 29.6 µM | > 100 | > 100 | 1930 | 3.61 | 27.1 | – | – |
| O=S(=O)(O)c1ccc(N=Nc2c(O)ccc3cc(Br)ccc23)cc1 | > 100 µM | > 100 µM | > 100 µM | > 100 µM | – | > 100 µM | > 100 µM | > 100 µM | > 100 µM | > 100 µM | > 100 µM | > 100 | > 100 | – | – | – | – | – |
| CNC(=O)SCC(N)C(=O)O (centres undefined) | > 100 µM | > 100 µM | > 100 µM | > 100 µM | > 100 µM | > 100 µM | > 100 µM | > 100 µM | > 100 µM | > 100 µM | > 100 µM | – | – | – | – | – | – | – |
| Cc1ccc(-c2cc(C(F)(F)F)nn2-c2ccc(S(N)(=O)=O)cc2)cc1 | 46.4 µM | 35.9 µM | > 57 µM | 36 µM | > 58.4 µM | 40.7 µM | > 54.6 µM | > 54.5 µM | 29.9 µM | > 53.2 µM | > 53.6 µM | 34.1 | 32.1 | – | – | – | – | – |
| CC1CCC2(C(=O)O)CCC3(C)C(=CCC4C5(C)CCC(O)C(C)(C)C5CCC43C)C2C1C (centres undefined) | 24.2 µM and 31.9 µM | 21 µM and 20.9 µM | 27 µM and 35.1 µM | 16.4 µM and 38.3 µM | 25.6 µM and 43.7 µM | 27.9 µM and > 100 µM | 26.9 µM and 33.2 µM | 19.8 µM and > 100 µM | 24.3 µM and 31.5 µM | 16.6 µM and 14.5 µM | 18.8 µM and 44 µM | 29.3 | 40.5 | – | – | – | 3.59 µM and 16.6 µM | – |
| CCCC(=O)NC1CCc2cc(OC)c(OC)c(OC)c2-c2ccc(OC)c(=O)cc21 (centres undefined) | – | – | – | 44.7 µM | > 100 µM | > 100 µM | > 100 µM | > 100 µM | > 100 µM | 75.9 µM | > 100 µM | > 100 | > 100 | – | – | – | – | 138 |
| CC1CC[C@@]2(OC1)OC1CC3C4CCC5C[C@@H](OC6OC(CO)C(OC7OC(CO)C(O)C(OC8OC(CO)C(O)C(OC9OC(CO)C(O)C(O)C9O)C8O)C7OC7OC(CO)C(O)C(O)C7O)C(O)C6O)[C@H](O)C[C@]5(C)C4CC[C@]3(C)C1[C@@H]2C (some centres undefined) | > 80.5 µM | > 80.5 µM | > 80.5 µM | > 80.5 µM | > 80.5 µM | > 80.5 µM | – | > 80.5 µM | – | – | > 80.5 µM | > 80.5 | > 80.5 | – | – | – | – | – |
| CCC(=O)c1ccc2[nH]c3c(C)c4c(=O)cc(C)[nH]c4c(C)c3c2c1 | > 100 µM | > 100 µM | – | > 100 µM | > 100 µM | > 100 µM | > 100 µM | > 100 µM | – | > 100 µM | – | > 100 | > 100 | – | – | – | – | – |
| CC(=O)O[C@H]1/C(=C/c2ccncc2)C[C@H]2[C@@H]3CC=C4C[C@@H](N5CCCC5)CC[C@]4(C)[C@H]3CC[C@]12C | 37.7 µM | 26.2 µM | 37 µM | 20.4 µM | 25.8 µM | 38.5 µM | 27.1 µM | 24.8 µM | 23.4 µM | 18.1 µM | 27.5 µM | 26.6 | 35.8 | – | – | – | – | – |

Reference: PubChem BioAssay (NCI)
